# Measured values: patent US8927760B2, “Colchicine derivatives or pharmaceutically acceptable salts thereof, method for preparing said derivatives, and pharmaceutical composition comprising said derivatives” (priority 2010, dated 2015)
# Where “and” joins values, the source holds several entries; their conditions need not be identical. Equal values may be shown once. Entries after “also recorded” stand apart in the source; their conditions may differ.
# Assays:
# [1] = system: Wistar rat (recipient) with transplanted Lewis rat heart; assay: Allogeneic heart transplantation (abdominal heterotopic, Lewis donor to Wistar recipient); type: in vivo
# Experimental: Hearts of 8-week-old Lewis rats (donor) weighing about 250 g were extracted and performed abdominal heterotopic heart transplantation into the abdominal cavity of 8-week-old Wistar rat (recipient) weight about 300 g by cross-clamping caudal vena cava and the abdominal aorta of recipient both proximally and distally to the anastomotic site.
# The heart rate of each rat in an untreated control group and the experimental groups was measured by abdominal palpation from the date of the heart transplant, and the heart rate was classified as ++++ (strong and fast heartbeat), +++ (strong or fast heartbeat), ++ (faint and slow but distinct heartbeat), + (faint but steady heartbeat), and ±0 (intermittent heartbeat).
# [2] = system: streptozotocin induced diabetic Fischer 344 rats with transplanted Lewis rat islet cells; assay: Allogeneic pancreatic islet cell transplantation - single intraperitoneal administration; type: in vivo
# Experimental: (§1) Streptozotocin is a drug that destroys pancreatic islet cells to induce diabetes and is used to create experimental diabetic animal models. Allogeneic islets were transplanted into the livers of streptozotocin induced diabetic rat by injection into the portal vein. The functioning of transplanted islets was assessed by daily measurements of blood glucose levels. Islets were considered rejected when the blood glucose level was 200 mg/dl on two consecutive days.
# (§2) 35 mg/kg of streptozotocin (50 mg/mL) dissolved in a 0.1 M citrate buffer solution (pH 4.5) was intraperitoneally injected into 8-week-old male Fischer 344 rats (F344) weighing about 200 to 220 g. Then, the blood glucose level was measured after 1 week, and the first day when the blood glucose level increased over 300 mg/dl and the increase was repeated more than twice was considered as the date of diagnosis of diabetes. The rats were used in transplantation 3 weeks after the administration of streptozotocin.
# (§3) Pancreases of 8-week-old male Lewis rats were extracted on the 3 weeks after the diabetes was induced in Fischer rats, and islet cells were isolated. The isolated islet cells were cultured in a CO2 incubator at 37° C. for a day, and the cultured islet cells were transplanted into the diabetic Fischer rats.
# Cyclosporin (5 mg/kg), colchicine (10 μg/kg and 40 μg/kg), and colchicine derivative compounds (compounds 1, 7, 9, 14, 15, 17, 18, 22, and 23; 50 μg/kg) were administered to the Fischer rats, to which the islet cells were transplanted, for 14 days from the date of transplantation, and the maintenance of blood glucose levels was examined until rejection occurred from the date of transplantation.
# [3] = system: streptozotocin induced diabetic Fischer 344 rats with transplanted Lewis rat islet cells; assay: Allogeneic pancreatic islet cell transplantation - combined intraperitoneal administration; type: in vivo; details: for Average number of days for which islet cell function was maintained / Number of days for which islet cell function was maintained (individual rats): i.p. for 14 days
# Experimental: as §1, §2, §3
# However, considering the interaction between the two drugs, the two drugs were introduced in different syringes and injected to right and left sides of the abdominal cavity, respectively, and the measurement results are shown in the following table 4.
# spleen cells of rats = assay: Cytotoxicity test in rat spleen cells (CCK, absorbance at 450 nm); type: cell-based; details: 72 hours, at concentrations of 100 ng to 10000 ng/mL
# Experimental: Cytotoxicity test was performed to determine the toxicity of immunosuppressant candidate materials by mixing the immunosuppressant candidate materials with spleen cells of rats in culture media and measuring the degree of toxicity in the cells. […] The concentrations of the drugs were 0.1, 1, 10, 100, 1000, 10000, and 100000 ng/mL. The cells were cultured in a CO2 incubator for 72 hours, and then each well was treated with 10 μl of CCK-SK (Dojindo, Japan). Subsequently, the cells were cultured again in the CO2 incubator for 4 hours, and then the absorbance (O.D. value) was measured at 450 nm using a spectrophotometer.
# [4] = system: streptozotocin induced diabetic Fischer 344 rats with transplanted Lewis rat islet cells; assay: Allogeneic pancreatic islet cell transplantation - continuous combined intraperitoneal administration; type: in vivo
# Experimental: as §1, §2, §3
# [5] = 10 μg/kg intravenously for 14 days
# [6] = 40 μg/kg intravenously for 14 days
# [7] = 40 μg/kg intravenously for 14 days, * = death
# [8] = single administration, 10 μg/kg i.p. for 14 days
# [9] = single administration, 40 μg/kg i.p. for 14 days
# [10] = single administration, 40 μg/kg i.p. for 14 days, * = death
# [11] = 10 μg/kg combined with CsA (5 mg/kg)
# [12] = 50 μg/kg combined with CsA (5 mg/kg)
# [13] = single administration, 50 μg/kg i.p. for 14 days
# [14] = CsA (5 mg/kg) & Compound 14 (40 μg/kg) for 2 weeks, then continuously injected
# [15] = CsA (5 mg/kg) & Compound 14 (500 μg/kg) for 2 weeks, then continuously injected
# [16] = CsA (5 mg/kg) & Compound 14 (500 μg/kg) for 2 weeks, then only CsA (5 mg/kg)
# [17] = CsA (5 mg/kg) & Compound 14 (500 μg/kg) for 2 weeks, then only compound 14 (500 μg/kg)
# [18] = CsA (5 mg/kg) & Compound 14 (500 μg/kg) injected for 2 weeks
structure (smiles),measurement,setting,value
"COc1cc2c(c(OC)c1OC)-c1ccc(OC)c(=O)cc1[C@@H](NC(C)=O)CC2 [Colchicine, colchicine]",Average number of days for which heart rate was kept,[1]; [5],>70 ± 100.5 days
same,Number of days for which heart rate was kept (individual rats),[1]; [5],12 day (2×) and > 186 day
same,Number of days for which heart rate was kept (individual rats),"[1]; 10 μg/kg intravenously for 14 days, listed as colchicine",12 day and over 186 day
same,Average number of days for which heart rate was kept,[1]; [6],>73.3 ± 85.4 days
same,Number of days for which heart rate was kept (individual rats),[1]; [7],13 days and 14 days and > 32 days and > 187 days
same,Number of days for which heart rate was kept (individual rats),"[1]; 40 μg/kg intravenously for 14 days, * = death, listed as colchicine",13 day and 14 day and over 187 day
same,death of rats,"[2]; 40 μg/kg alone, four rats, listed as colchicines",two of the four rats were dead; also recorded: one rat was dead suddenly after 9 days
same,weight reduction,"[2]; 40 μg/kg alone, on the second day, the two rats that died",15%
same,difference from the control group in maintenance of blood glucose levels,[2]; single administration,no significant differences from the control group
same,Average number of days for which islet cell function was maintained,[2]; [8],5 days
same,Number of days for which islet cell function was maintained (individual rats),[2]; [8],"5, 5 day"
same,Average number of days for which islet cell function was maintained,[2]; [9],6 days
same,Number of days for which islet cell function was maintained (individual rats),[2]; [10],2 day (2×) and 6 day and 9 day
same,Number of days for which islet cell function was maintained (individual rats),"[2]; single administration, 40 μg/kg i.p. for 14 days, * = death, listed as colchicines",6 days
same,Average number of days for which islet cell function was maintained,[3]; [11],8 days
same,Average number of days for which islet cell function was maintained,"[3]; 10 μg/kg combined with CsA (5 mg/kg), listed as colchicine",8 days
same,increase of days of islet cell function compared to the single administration,[3]; 10 μg/kg combined with cyclosporin A (5 mg/kg),about 3 days
"COc1cc2c(c(OC)c1OC)-c1ccc(OC)c(=O)cc1C(NC(=O)OCc1ccccc1)CC2 (centres unmarked) [Compound 1, (1,2,3,10-tetramethoxy-9-oxo-5,6,7,9-tetrahydro-benzo[a]heptalen-7-yl)-carbamic acid benzyl ester]",cytotoxicity,spleen cells of rats,no cytotoxicity
same,Average number of days for which islet cell function was maintained,[3]; [12],27 days
same,Number of days for which islet cell function was maintained (individual rats),[3]; [12],"27, 27 day"
"COc1ccc(COC(=O)NC2CCc3cc(OC)c(OC)c(OC)c3-c3ccc(OC)c(=O)cc32)cc1 (centres unmarked) [Compound 7, (1,2,3,10-tetramethoxy-9-oxo-5,6,7,9-tetrahydro-benzo[a]heptalen-7-yl)-carbamic acid 4-methoxy benzyl ester]",cytotoxicity,spleen cells of rats,no cytotoxicity
same,Average number of days for which islet cell function was maintained,[2]; [13],5.7 ± 1.16 days
same,Number of days for which islet cell function was maintained (individual rats),[2]; [13],5 day (2×) and 7 day
same,Average number of days for which islet cell function was maintained,[3]; [12],>61.6 days
same,Average number of days for which islet cell function was maintained,[3]; 100 μg/kg combined with CsA (5 mg/kg),>72 days
"COc1cc2c(c(OC)c1OC)-c1ccc(OC)c(=O)cc1C(NC(=O)OCc1ccc(C(C)C)cc1)CC2 (centres unmarked) [Compound 9, (1,2,3,10-tetramethoxy-9-oxo-5,6,7,9-tetrahydro-benzo[a]heptalen-7-yl)-carbamic acid 4-isopropyl benzyl ester]",cytotoxicity,spleen cells of rats,no cytotoxicity
same,Average number of days for which islet cell function was maintained,[2]; [13],5.7 ± 0.58 days
same,Number of days for which islet cell function was maintained (individual rats),[2]; [13],5 days to days and 5 day and 6 day
same,Average number of days for which islet cell function was maintained,[3]; [12],>55.7 days
"COc1cc2c(c(OC)c1OC)-c1ccc(OC)c(=O)cc1C(NC(=O)OCC1c3ccccc3-c3ccccc31)CC2 (centres unmarked) [Compound 14, (1,2,3,10-tetramethoxy-9-oxo-5,6,7,9-tetrahydro-benzo[a]heptalen-7-yl)-carbamic acid 9H-fluoren-9-ylmethyl ester]",cytotoxicity,spleen cells of rats,no cytotoxicity
same,Average number of days for which heart rate was kept,[1]; [5],>107 ± 86.6 days
same,Number of days for which heart rate was kept (individual rats),[1]; [5],9 day and over 139 day and over 173 day and > 139 day and > 173 day
same,Average number of days for which heart rate was kept,[1]; [6],>173.5 ± 0.7 days
same,Number of days for which heart rate was kept (individual rats),[1]; [7],over 173 day and > 174 day and > 173 day
same,Average number of days for which islet cell function was maintained,[2]; [8],5.5 ± 0.71 days
same,Number of days for which islet cell function was maintained (individual rats),[2]; [8],"5, 5 day"
same,Average number of days for which islet cell function was maintained,[2]; [9],6.5 ± 0.71 days
same,Number of days for which islet cell function was maintained (individual rats),[2]; [10],6 days and 7 days
same,Average number of days for which islet cell function was maintained,[3]; [11],28.7 days
same,Average number of days for which islet cell function was maintained,[3]; 40 μg/kg combined with CsA (5 mg/kg),>61.8 days
same,Average number of days for which islet cell function was maintained,[4]; [14],>63 ± 9.9 days
same,Number of days for which islet cell function was maintained (individual rats),[4]; [14],56 days and > 70 days
same,Average number of days for which islet cell function was maintained,[4]; [15],67.7 ± 24.0 days
same,Number of days for which islet cell function was maintained (individual rats),[4]; [15],40 days and 81 days and 82 days
same,Average number of days for which islet cell function was maintained,[4]; [16],48.5 ± 12.0 days
same,Number of days for which islet cell function was maintained (individual rats),[4]; [16],40 days and 57 days
same,Average number of days for which islet cell function was maintained,[4]; [17],52.7 ± 52.3 days
same,Number of days for which islet cell function was maintained (individual rats),[4]; [17],20 days and 25 days and 113 days
same,Average number of days for which islet cell function was maintained,[4]; [18],29 ± 3.61 days
same,Number of days for which islet cell function was maintained (individual rats),[4]; [18],25 days and 30 days and 32 days
same,"islet cell function improved, times compared to 2 weeks combined administration only",[4]; two drugs continuously administered together after combined administration for 2 weeks,about 2.3 times
"COc1cc2c(c(OC)c1OC)-c1ccc(OC)c(=O)cc1C(NC(=O)OCC1c3ccccc3-c3cccc(C)c31)CC2 (centres unmarked) [Compound 15, (1,2,3,10-tetramethoxy-9-oxo-5,6,7,9-tetrahydro-benzo[a]heptalen-7-yl)-carbamic acid 1-methyl-9H-fluoren-9-ylmethyl ester]",cytotoxicity,spleen cells of rats,no cytotoxicity
same,Average number of days for which islet cell function was maintained,[3]; [12],24 days
same,Number of days for which islet cell function was maintained (individual rats),[3]; [12],"24, 24 day"
"COc1cc2c(c(OC)c1OC)-c1ccc(OC)c(=O)cc1C(NC(=O)OCC1c3cc(C(C)(C)C)ccc3-c3ccc(C(C)(C)C)cc31)CC2 (centres unmarked) [Compound 17, (1,2,3,10-tetramethoxy-9-oxo-5,6,7,9-tetrahydro-benzo[a]heptalen-7-yl)-carbamic acid 2,7-di-tert-butyl-9H-fluoren-9-ylmethyl ester]",cytotoxicity,spleen cells of rats,no cytotoxicity
same,Average number of days for which islet cell function was maintained,[3]; [12],36.5 days
"COc1cc2c(c(OC)c1OC)-c1ccc(OC)c(=O)cc1C(NC(=O)OCCC1c3ccccc3-c3ccccc31)CC2 (centres unmarked) [Compound 18, (1,2,3,10-tetramethoxy-9-oxo-5,6,7,9-tetrahydro-benzo[a]heptalen-7-yl)-carbamic acid 2-(9H-fluoren-9-yl)-ethyl ester]",cytotoxicity,spleen cells of rats,no cytotoxicity
same,Average number of days for which islet cell function was maintained,[3]; [12],28 days
"COc1ccc(CCC(=O)NC2CCc3cc(OC)c(OC)c(OC)c3-c3ccc(OC)c(=O)cc32)cc1 (centres unmarked) [Compound 22, 3-(4-methoxy-phenyl)-N-(1,2,3,10-tetramethoxy-9-oxo-5,6,7,9-tetrahydro-benzo[a]heptalen-7-yl)-propionamide]",cytotoxicity,spleen cells of rats,no cytotoxicity
same,Average number of days for which islet cell function was maintained,[3]; [12],20.7 days
"COc1cc2c(c(OC)c1OC)-c1ccc(OC)c(=O)cc1C(NC(=O)CC1c3ccccc3-c3ccccc31)CC2 (centres unmarked) [Compound 23, 2-(9H-fluoren-9-yl)-N-(1,2,3,10-tetramethoxy-9-oxo-5,6,7,9-tetrahydro-benzo[a]heptalen-7-yl)-acetamide]",cytotoxicity,spleen cells of rats,no cytotoxicity
same,Average number of days for which islet cell function was maintained,[3]; [12],26.5 days
